Legend:
[1] = system: ECHCG (Barnyardgrass); assay: Postemergence herbicidal evaluation; type: in vivo, Echinochloa crus-galli; details: postemergence
In short: (§1)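 Two-week seedlings sprayed postemergence at 40 psi; formulation: 1:1 acetone/water, 0.5% TWEEN 20; application ≈0.0156–0.500 kg/ha. Greenhouse grow-out, then 0–9 visual scoring at 4–5 weeks.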

[2] = system: ABUTH (Velvetleaf); assay: Postemergence herbicidal evaluation; type: in vivo, Abutilon theophrasti; details: postemergence
In short: as §1

[3] = system: IPOHE (Morningglory, Ivyleaf); assay: Postemergence herbicidal evaluation; type: in vivo, Ipomoea hederacea; details: postemergence
In short: as §1

[4] = system: CYPIR (Rice Flatsedge); assay: Postemergence weed control under flooded paddy conditions; type: in vivo, Cyperus iria; details: postemergence weeds, rated 3 to 4 weeks after treatment
In short: (§2)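 With weeds 3 to 5 cm tall and rice at the 1.5 to 2.5 leaf stage, containers were flooded and water held 1.5 to 3 cm above soil. Compounds in 50/50 v/v aqueous/acetone went into the flood water at about 0.0313 to 0.500 kg/ha a.i. Effects were visually rated 0–9 against controls after three to four weeks in the greenhouse.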

[5] = system: CYPSE (Flatsedge); assay: as above; type: in vivo, Cyperus serotinus; details: postemergence weeds, rated 3 to 4 weeks after treatment
In short: as §2

[6] = system: ORYSAT (Rice, Tebonnet); assay: Postemergence herbicidal evaluation; type: in vivo, Oryza sativa, (L.) Tebonnet; details: postemergence
In short: as §1

[7] = system: CHEAL (Lambsquarters, Common); assay: Postemergence herbicidal evaluation; type: in vivo, Chenopodium album; details: postemergence
In short: as §1

[8] = system: SETVI (Foxtail, Green); assay: Postemergence herbicidal evaluation; type: in vivo, Setaria viridis; details: postemergence
In short: as §1

[9] = system: GLXMAW (Soybean, Williams); assay: Preemergence herbicidal evaluation; type: in vivo, Glycine max, (L.) Merr. cv Williams; details: preemergence, rated 4-5 weeks after treatment, 0-9 scale
In short: (§3)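 Preemergence soil application of compound, sprayed in aqueous acetone at rates equivalent to about 0.0156 to 0.500 kg per hectare onto freshly sown cups. Plant response was judged by eye on a 0-9 scale four to five weeks later.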

[10] = system: ZEAMX (Corn, Field); assay: Preemergence herbicidal evaluation; type: in vivo, Zea mays; details: preemergence, rated 4-5 weeks after treatment, 0-9 scale
In short: as §3

[11] = system: TRZAWR (Wheat, Winter, cv Riband); assay: Preemergence herbicidal evaluation; type: in vivo, Triticum aestivum; details: preemergence, rated 4-5 weeks after treatment, 0-9 scale
In short: as §3

[12] = system: CHEAL (Lambsquarters, Common); assay: Preemergence herbicidal evaluation; type: in vivo, Chenopodium album; details: preemergence, rated 4-5 weeks after treatment, 0-9 scale
In short: as §3

[13] = system: IPOHE (Morningglory, Ivyleaf); assay: Preemergence herbicidal evaluation; type: in vivo, Ipomoea hederacea; details: preemergence, rated 4-5 weeks after treatment, 0-9 scale
In short: as §3

[14] = system: ZEAMX (Corn, Field); assay: Postemergence herbicidal evaluation; type: in vivo, Zea mays; details: postemergence
In short: as §1

[15] = system: ECHCG (Barnyardgrass); assay: Preemergence herbicidal evaluation; type: in vivo, Echinochloa crus-galli; details: preemergence, rated 4-5 weeks after treatment, 0-9 scale
In short: as §3

[16] = system: ABUTH (Velvetleaf); assay: Preemergence herbicidal evaluation; type: in vivo, Abutilon theophrasti; details: preemergence, rated 4-5 weeks after treatment, 0-9 scale
In short: as §3

[17] = system: CASOB (Sicklepod); assay: Preemergence herbicidal evaluation; type: in vivo, Cassia obtusifolia; details: preemergence, rated 4-5 weeks after treatment, 0-9 scale
In short: as §3

Question: What does the source list for C=CCN1C(=O)C(CC(N)=O)SC1=Nc1cc(-n2c(=O)cc(C(F)(F)F)n(C)c2=O)c(F)cc1Cl (stereo not shown) [Compound 99, 3-Allyl-2-{{2-chloro-5-[3,6-dihydro-3-methyl-2,6-dioxo-4-(trifluoromethyl)-1(2H)-pyrimidinyl]-4-fluorophenyl}imino}-4-oxo-5-thiazolidineacetamide]?
Answer: herbicidal rating ECHCG ([1]; rate 0.0156 kg/ha): 4.0; herbicidal rating ECHCG ([1]; rate 0.0313 kg/ha): 4.0; ECHCG herbicidal rating ([1]; rate 0.0625 kg/ha): 7.0; ECHCG herbicidal rating ([1]; rate 0.1250 kg/ha): 6.0; herbicidal rating ABUTH ([2]; rate 0.0156 kg/ha): 9.0; herbicidal rating ABUTH ([2]; rate 0.0313 kg/ha): 9.0; ABUTH herbicidal rating ([2]; rate 0.0625 kg/ha): 9.0; ABUTH herbicidal rating ([2]; rate 0.1250 kg/ha): 9.0; herbicidal rating IPOHE ([3]; rate 0.0156 kg/ha): 9.0; herbicidal rating IPOHE ([3]; rate 0.0313 kg/ha): 9.0; IPOHE herbicidal rating ([3]; rate 0.0625 kg/ha): 9.0; IPOHE herbicidal rating ([3]; rate 0.1250 kg/ha): 9.0; Herbicidal rating CYPIR ([4]; Rate 0.0313 kg/ha): 0.0; Herbicidal rating CYPIR ([4]; Rate 0.0625 kg/ha): 0.0; Herbicidal rating CYPIR ([4]; Rate 0.1250 kg/ha): 0.0; Herbicidal rating CYPIR ([4]; Rate 0.2500 kg/ha): 0.0; Herbicidal rating CYPIR ([4]; Rate 0.5000 kg/ha): 0.0; Herbicidal rating CYPSE ([5]; Rate 0.0313 kg/ha): 0.0; Herbicidal rating CYPSE ([5]; Rate 0.0625 kg/ha): 0.0; Herbicidal rating CYPSE ([5]; Rate 0.1250 kg/ha): 0.0; Herbicidal rating CYPSE ([5]; Rate 0.2500 kg/ha): 0.0; Herbicidal rating CYPSE ([5]; Rate 0.5000 kg/ha): 0.0; herbicidal rating ORYSAT ([6]; rate 0.0156 kg/ha): 4.0; herbicidal rating ORYSAT ([6]; rate 0.0313 kg/ha): 4.5; ORYSAT herbicidal rating ([6]; rate 0.0625 kg/ha): 5.5; ORYSAT herbicidal rating ([6]; rate 0.1250 kg/ha): 6.5; herbicidal rating CHEAL ([7]; rate 0.0156 kg/ha): 7.0; herbicidal rating CHEAL ([7]; rate 0.0313 kg/ha): 7.0; CHEAL herbicidal rating ([7]; rate 0.0625 kg/ha): 9.0; CHEAL herbicidal rating ([7]; rate 0.1250 kg/ha): 9.0; herbicidal rating SETVI ([8]; rate 0.0156 kg/ha): 6.0; herbicidal rating SETVI ([8]; rate 0.0313 kg/ha): 7.0; SETVI herbicidal rating ([8]; rate 0.0625 kg/ha): 9.0; SETVI herbicidal rating ([8]; rate 0.1250 kg/ha): 8.0; GLXMAW rating ([9]; 0.0156 kg/ha): 0.0; GLXMAW rating ([9]; 0.0313 kg/ha): 0.0; GLXMAW rating ([9]; 0.0625 kg/ha): 3.0; GLXMAW rating ([9]; 0.1250 kg/ha): 4.0; GLXMAW rating ([9]; 0.2500 kg/ha): 7.0; GLXMAW rating ([9]; 0.5000 kg/ha): 7.0; ZEAMX rating ([10]; 0.0156 kg/ha): 0.0; ZEAMX rating ([10]; 0.0313 kg/ha): 0.0; ZEAMX rating ([10]; 0.0625 kg/ha): 1.0; ZEAMX rating ([10]; 0.1250 kg/ha): 2.0; ZEAMX rating ([10]; 0.2500 kg/ha): 6.0; ZEAMX rating ([10]; 0.5000 kg/ha): 7.0; TRZAWR rating ([11]; 0.0156 kg/ha): 0.0; TRZAWR rating ([11]; 0.0313 kg/ha): 0.0; TRZAWR rating ([11]; 0.0625 kg/ha): 1.0; TRZAWR rating ([11]; 0.1250 kg/ha): 1.0; TRZAWR rating ([11]; 0.2500 kg/ha): 4.0; TRZAWR rating ([11]; 0.5000 kg/ha): 5.0; CHEAL rating ([12]; 0.0156 kg/ha): 9.0; CHEAL rating ([12]; 0.0313 kg/ha): 9.0; CHEAL rating ([12]; 0.0625 kg/ha): 9.0; CHEAL rating ([12]; 0.1250 kg/ha): 9.0; CHEAL rating ([12]; 0.2500 kg/ha): 9.0; CHEAL rating ([12]; 0.5000 kg/ha): 9.0; IPOHE rating ([13]; 0.0156 kg/ha): 0.0; IPOHE rating ([13]; 0.0313 kg/ha): 0.0; IPOHE rating ([13]; 0.0625 kg/ha): 9.0; IPOHE rating ([13]; 0.1250 kg/ha): 9.0; IPOHE rating ([13]; 0.2500 kg/ha): 9.0; IPOHE rating ([13]; 0.5000 kg/ha): 9.0; herbicidal rating ZEAMX ([14]; rate 0.0156 kg/ha): 5.0; herbicidal rating ZEAMX ([14]; rate 0.0313 kg/ha): 6.0; ZEAMX herbicidal rating ([14]; rate 0.0625 kg/ha): 7.5; ZEAMX herbicidal rating ([14]; rate 0.1250 kg/ha): 8.0; ECHCG rating ([15]; 0.0156 kg/ha): 0.0; ECHCG rating ([15]; 0.0313 kg/ha): 0.0; ECHCG rating ([15]; 0.0625 kg/ha): 0.0; ECHCG rating ([15]; 0.1250 kg/ha): 1.0; ECHCG rating ([15]; 0.2500 kg/ha): 1.0; ECHCG rating ([15]; 0.5000 kg/ha): 7.0; ABUTH rating ([16]; 0.0156 kg/ha): 9.0; ABUTH rating ([16]; 0.0313 kg/ha): 9.0; ABUTH rating ([16]; 0.0625 kg/ha): 9.0; ABUTH rating ([16]; 0.1250 kg/ha): 9.0; ABUTH rating ([16]; 0.2500 kg/ha): 9.0; ABUTH rating ([16]; 0.5000 kg/ha): 9.0; CASOB rating ([17]; 0.0156 kg/ha): 0.0; CASOB rating ([17]; 0.0625 kg/ha): 1.0; CASOB rating ([17]; 0.1250 kg/ha): 2.0; CASOB rating ([17]; 0.2500 kg/ha): 3.0; CASOB rating ([17]; 0.5000 kg/ha): 7.0

Reference: US20020137929A1, “1 - (3-heterocyclylphenyl) isothiourea, -isourea, -guanidine and -amidine herbicidal agents” (Intellectual Property Department, BASF Aktiengesellschaft, priority 1998, published 2002)
